Where a SMILES comes first, the peptide text is derived from it. [ ]: non-standard residue; d: D form. The star is where a group is joined. Sta = CC(C)C[C@H](N)[C@@H](O)CC(=O)O; Isovaleryl = CC(C)CC(=O)*
Tests used:
Format in all cases: cell-based
porcine PGCs [1] = experiment: In vitro culture of porcine PGCs on STO feeder cells with apoptosis inhibitors; AP-stained colonies counted; settings: for Normalized # of Colonies + SE: Table 7 antioxidants: NAC 1.0 mM, BHA 0.1 mM, BPN 1.0 mM, CIM 2.0 mM, normalized to control; for Effect on the number of PGCs, in words: single concentrations of Tables 6 and 7
Text: Porcine fetuses were collected from hysterectomized uteri of four-way crossbred gilts (DeKalb, Ill.) between day 25 and 30 of pregnancy (estrus=day 0). Fetuses were washed in phosphate buffered saline supplemented with BSA (0.4%, Sigma St. Louis, Mo.) and penicillin/streptomycin (1%, Gibco BRL, Rockville, Md.) (PBS/BSA/PS). Urogenital ridges, appeared as longitudinal protrusions along the medial mesonephric surface, were isolated and washed in PBS/BSA/PS followed by several washes in PES medium before PGC collection. The PES medium was comprised of 50:50 mixture of Dulbecco's modified Eagle's medium (DMEM) and Ham's F10 medium supplemented with 15% fetal bovine serum (FBS), L-glutamine (2 mM), β-mercaptoethanol (0.1 mM), MEM non-essential amino acids (1%) and penicillin/streptomycin (1%). All media and supplements were purchased from Gibco BRL.
PGCs were isolated by incubation in 0.25% trypsin/1 mM EDTA solution (Gibco BRL) followed by gentle pipetting or by mechanical dissociation of ridges into small fragments followed by gentle pipetting. After tissue disruption, cells were centrifuged for 5 minutes at 250 rpm to remove tissue debris and clumps. The supernatant containing most the single cells was collected and centrifuged at 1000 rpm for 10 minutes.
PGCs were resuspended with PES medium containing cytokines, such as soluble recombinant human stem cell factor (SCF; 40 ng/ml), human basic fibroblast growth factor (bFGF; 20 ng/ml), and human leukemia inhibitory factor (LIF; 20 ng/ml). All cytokines were obtained from R&D Systems (Minneapolis, Minn.). Cell suspensions were plated on irradiated mouse STO feeder cells (3×10^6 cells per 35 mm well), prepared as previously described (Piedrahita et al., 1998) and cultured in humidified environment of 5% CO2 in air, 38° C. PGC-derived colonies with ES-like morphology after 7-10 days of culture are passaged to fresh feeders for establishment of cell lines. PGC-derived colonies were dissociated with 0.25% trypsin/1 mM EDTA (Gibco BRL) for 10 minutes. […] To identify PGC-derived cells and the state of differentiation were determined by morphology and by expression of alkaline phosphatase (AP).
AP activity was determined as described previously (Moore and Piedrahita, 1997). Briefly, culture plates were rinsed twice in PBS and fixed in 4% formaldehyde in PBS for 15 minutes at room temperature. Fixed cells were washed twice with PBS and stained in naphtol AS-MX phosphate (200 μg/ml; Sigma) and Fast Red TR salt (1 mg/ml; Sigma) in 100 mM Tris buffer, pH 8.2 for 30 minutes at room temperature. Staining was terminated by washing cultures in PBS. Specificity of AP activity was determined by staining in the presence of the AP inhibitor, tetramisole (500 μM; Sigma). Mouse ES cells also were stained as control for AP activity.
To determine the effect of apoptosis inhibitors on survival of porcine PGCs in vitro, freshly isolated PGCs were cultured as described above with or without apoptosis inhibitors, α2-macroglobulin (MAC: broad range protease inhibitor, 1.4 pM) and N-acetylcysteine (NAC: antioxidant, 1 mM). After 7-10 days of culture, colonies were stained for AP activity and counted. Studies were performed at least three replicates. The data were normalized to the treatment with no inhibitors added (control) and tested for homogeneity of variance and analyzed by ANOVA. Mean separation is accomplished by Fisher's protected LSD using software SuperANOVA (Abacus Concepts).
Dose titration of MAC (0.35, 0.7, 1.4, and 2.8 pM) and NAC (0.25, 0.5, 1.0, and 2.0 mM), to determine the optimal concentration of inhibitors, were performed.

[2] = tested on: Bovine embryonic fibroblasts (BEF); experiment: Cell cycle distribution (propidium iodide flow cytometry) of serum starved bovine embryonic fibroblasts
Description: (§1) Bovine embryonic fibroblasts (BEF) were isolated from the fetus with 3-5 cm crown-rump length. After two or three passages, cells were plated one million cells per plate (100 mm) with growth medium (DMEM) with 2 mM L-glutamine, 0.1 mM β-mercaptoethanol and 10% FBS. After 24 hours, cells were washed with PBS 3-5 times and then serum starvation medium with 0.5% FBS was added. In addition, cells were treated with serum starvation medium containing apoptosis inhibitors such as a2-macroglobulin (0.7 pM), N-acetylcysteine (1 mM) and glutathione (2 mM). Cells were treated with serum starvation with or without apoptosis inhibitors for 5 or 10 days. Then cells were trypsinized and counted.
(§2) Cells (1×10^6) were washed in 0.15 M NaCI, fixed in 70% ethanol, and stored at −20° C. overnight or until ready to be analyzed. For analysis, cells were centrifuged, rinsed with PBS, resuspended in 500 μl of a 0.05 mg/ml propidium iodide/0.1% Triton X-100/0.2 mg/ml RNase A solution, and incubated for a minimum of 30 minutes at room temperature in the dark. Cells were analyzed by flow cytometry to determine DNA content. Modfit LT™ (Verity Software House, Topsham, Me.) was used to model the cell cycle distribution within each sample.

[3] = tested on: Porcine embryonic fibroblast (PEF); experiment: TUNEL assay (flow cytometry) of serum starved porcine embryonic fibroblasts; settings: serum starvation 5 days, MAC 0.7 pM, NAC 1 mM, GSH 2 mM, serum starved without inhibitor 26.50
Text: (§3) Porcine embryonic fibroblast (PEF) were isolated from day 25-28 fetuses according to the methods previously described (Hogan et al., 1994). Briefly, porcine fetuses of day 25-30 (day 0=estrus) were removed from the uterus and rinsed with PBS+penicillin/streptomycin solution (PBS/PS). Head, limbs and internal organs were removed, and the carcasses were minced with razor blades or ground using a syringe head until they were the consistency of sludge. Then these were trypsinized 2-3 times using 0.25% trypsin+EDTA for 20 minutes. The supernatant fraction was removed and centrifuged to collect the cells. The cells were plated using DMEM+10% fetal bovine serum (FBS) and cultured up to 80-90% confluency before further passage.
as §1
After counting, cells were fixed and stained according to protocols with the APO-BRDU kit (Phoenix Flow Systems, San Diego, Calif.). […] To determine base line fluorescence, control cells were incubated without TdT. […] Following counterstaining with a propidium iodide/RNase A solution for 30 minutes in the dark, which allows simultaneous analysis of cell cycle position and apoptosis, cells were analyzed on a FACSCalibur™ flow cytometer (Becton Dickinson, San Jose, Calif.). Fluorescence emissions were measured at 582±21 nm for propidium iodide and 530±15 nm for fluorescein, without spectral compensation, after excitation at 488 nm by an argon-ion laser. […]

[4] = tested on: Porcine embryonic fibroblast (PEF); experiment: Cell cycle distribution (propidium iodide flow cytometry) of serum starved porcine embryonic fibroblasts
Text: as §3, §1, §2

[5] = tested on: Bovine embryonic fibroblasts (BEF); experiment: TUNEL assay (flow cytometry) of serum starved bovine embryonic fibroblasts; settings: MAC 0.7 pM, NAC 1 mM, GSH 2 mM
Description: as §1
After counting, cells were fixed and stained according to protocols with the APO-BRDU kit (Phoenix Flow Systems, San Diego, Calif.). Briefly, cells were fixed in 1% paraformaldehyde in PBS on ice for 15 minutes, washed in PBS, and fixed in 70% ethanol and stored at −20° C. until use. After removing the fixative, cells were washed twice and suspended in 50 μl of labeling solution containing Br-dUTP (bromolated deoxyuridine triphosphate) and TdT (terminal deoxynucleotidyl transferase) for 60 minutes at 37° C. TdT catalyzes the addition of Br-dUTP to the 3′-OH ends of DNA strand breaks in a template independent manner. To determine base line fluorescence, control cells were incubated without TdT. After rinsing, cells were incubated with an anti-BrdU monoclonal antibody conjugated to fluorescein for 30 minutes in the dark at room temperature; apoptotic cells which contain many free 3′-OH ends are intensely labeled, while non-apoptotic cells whose DNA is largely intact have little Br-dUTP incorporation and remain unlabeled. Following counterstaining with a propidium iodide/RNase A solution for 30 minutes in the dark, which allows simultaneous analysis of cell cycle position and apoptosis, cells were analyzed on a FACSCalibur™ flow cytometer (Becton Dickinson, San Jose, Calif.). Fluorescence emissions were measured at 582±21 nm for propidium iodide and 530±15 nm for fluorescein, without spectral compensation, after excitation at 488 nm by an argon-ion laser. For analysis, gates were set so that less than 2% of samples incubated without TdT were positive. Any event above this gate was deemed TUNEL positive for samples incubated with TdT.

porcine PGCs [6] = experiment: In vitro culture of porcine PGCs on STO feeder cells with apoptosis inhibitors; AP-stained colonies counted; settings: Table 6 protease inhibitors: MAC 0.7 pM, PA 50 μM, AEBSF 250 μM, TLCK 100 μM; normalized to control
[7] = addition during the starvation period
[8] = serum starvation 5 days, MAC 0.7 pM, NAC 1 mM, GSH 2 mM

CC(C)(C)[N+]([O-])=Cc1ccccc1 [BPN, N-t-butyl-α-phenylnitrone]
Normalized # of Colonies + SE (porcine PGCs [1]): 1.95 ± 0.17

N[C@@H](CCC(=O)N[C@@H](CS)C(=O)NCC(=O)O)C(=O)O [GSH, glutathione]
Proportion of cells going into G0, in words [2, 7]: did not affect the proportion of cells going into G0
G2/M (%) [2, 8]: 10%
S (%) [2, 8]: 4%
G0/G1 (%) ([2]; serum starvation (0.5% FBS) 5 days, MAC 0.7 pM, NAC 1 mM, GSH 2 mM): 86%
5-day Apoptosis (%) [3]: 0.12%
Proportion of cells going into G0, in words [4, 7]: did not affect the proportion of cells going into G0
G0/G1 (%) [4, 8]: 95%
G2/M (%) [4, 8]: 3%
S (%) [4, 8]: 2%
5-day Apoptosis (%) ([5]; serum starvation 5 days, serum starved without inhibitor 15.0): 1.5%
10-day Apoptosis (%) ([5]; serum starvation 10 days, serum starved without inhibitor 20.4): 0.8%

CN/C(=N/CCSCc1nc[nH]c1C)NC#N [CIM, cimetidine]
Normalized # of Colonies + SE (porcine PGCs [1]): 1.95 ± 0.05

CC(C)CC(=O)N[C@H](C(=O)N[C@H](C(=O)N[C@@H](CC(C)C)[C@@H](O)CC(=O)N[C@@H](C)C(=O)N[C@@H](CC(C)C)[C@@H](O)CC(=O)O)C(C)C)C(C)C [PA, pepstatin A] (Isovaleryl-VV[Sta]A[Sta]-OH)
Normalized # of Colonies + SE (porcine PGCs [6]): 0.85 ± 0.13

COc1ccc(O)c(C(C)(C)C)c1 [BHA, butylated hydroxyanisole]
Normalized # of Colonies + SE (porcine PGCs [1]): 2.48 ± 0.27

Cc1ccc(S(=O)(=O)N[C@@H](CCCCN)C(=O)CCl)cc1 [TLCK, Nα-p-tosyl-L-lysine chloromethyl ketone]
Normalized # of Colonies + SE (porcine PGCs [6]): 1.21 ± 0.10
Effect on the number of PGCs, in words (porcine PGCs [1]): positive effect

NCCc1ccc(S(=O)(=O)F)cc1 [AEBSF, 4-(2-aminoethyl)benzenesulfonyl fluoride]
Normalized # of Colonies + SE (porcine PGCs [6]): 1.14 ± 0.07
Effect on the number of PGCs, in words (porcine PGCs [1]): positive effect

— US6635802B1, “Nuclear transfer using cells cultured in serum starvation media containing apoptosis inhibitors” (The Texas A&M University System, priority 2000, dated 2003)
